Measured values published in patent publication US20250326744A1, “PIPERAZINE DERIVATIVE OR SALT THEREOF, AND PHARMACEUTICAL COMPOSITION” (priority 2022, published 2025).
Counter-ions that a name gives are not always drawn.

Tests used:
[1] = system: S-3769 strain; assay: Combinational effect with antibacterial agent against Pseudomonas aeruginosa (Test Examples 2 and 4): S-3769 strain with AMK or GM at 1/4 MIC, EC99; format: cell-based; conditions: Table 52, Test Example 2, 16 to 20 hours culture, OD595; for EC99, S-3769 strain, AMK: combined with AMK at 1/4 MIC; for EC99, S-3769 strain, GM: combined with GM at 1/4 MIC
Protocol: (§1) The combinational effect of the test compound with the antibacterial agent against Pseudomonas aeruginosa was evaluated.
The […] was used for evaluating the inhibitory ability against MexXY-OprM. AMK or GM was used as the antibacterial agent used in combination.
The S-3769 strain is a clinically isolated strain collected from a domestic medical institution, and is a strain in which the expression level of MexY is accelerated.
(§2) AMK and GM are aminoglycoside-based antibacterial agents, and are drugs that are not discharged outside the bacteria by MexB but are discharged outside the bacteria by MexY For the culture of each Pseudomonas aeruginosa strain, a 96-well plate (amount of culture medium per well: 100 μL) was used, and cation-adjusted Mueller Hinton broth (CAMHB) was used. The inoculation amount of the bacteria was set to 10^4 to 5 CFU/well.
(§3) The mexB (PA) strain and the S-3769 strain were cultured for 16 to 20 hours in a culture medium to which each antibacterial agent and test compounds at various concentrations (0 to 800 μM) were added, and the proliferation of the bacterial strains was evaluated by optical turbidity at 595 nm (OD595). The concentration of the antibacterial agent in the culture medium was set to ¼ MIC.
(§4) The proliferation of bacteria in a case where the test compound and the antibacterial agent were not added was measured, and compared with the proliferation of bacteria in a case where the test compound in a case where the antibacterial agent was added at the concentration of ¼ MIC was contained, and the lowest concentration of the test compound at which the proliferation was inhibited by 99% or more was defined as the drug efflux pump inhibitory ability of the test compound as 99% inhibitory effect concentration (EC99).
(§5) The effect of suppressing the proliferation of each test compound in combination with an antibacterial agent at ¼ MIC for mexB (PA) or the S-3769 strain was evaluated as follows according to the value of EC99. • S: EC99≤12.5 μM • A: 12.5 μM<EC99≤25 μM • B: 25 μM<EC99≤100 μM • C: 100 μM<EC99
(§6) The combinational effect of the test compound with the antibacterial agent against Pseudomonas aeruginosa was evaluated in the same manner as in Test Example 2.

[2] = system: mexB (PA) strain; assay: Combinational effect with antibacterial agent against Pseudomonas aeruginosa (Test Examples 2 and 4): mexB (PA) strain with LVFX, TC or AZT at 1/4 MIC, EC99; format: cell-based; conditions: Table 52, Test Example 2, 16 to 20 hours culture, OD595; for EC99, mexB (PA), AZT: combined with AZT at 1/4 MIC; for EC99, mexB (PA), LVFX: combined with LVFX at 1/4 MIC; for EC99, mexB (PA), TC: combined with TC at 1/4 MIC
Protocol: as §1
For the evaluation of the inhibitory ability against MexAB-OprM, a mutant strain of Pseudomonas aeruginosa in which MexAB-OprM was expressed as a main drug efflux pump (hereinafter, referred to as a “mexB (PA) strain”) was used. LVFX, TC, or AZT was used as the antibacterial agent used in combination.
The mexB (PA) strain is a strain produced by deleting the genes of MexCD-OprJ, MexEF-OprN, and MexXY in the drug efflux pump of Pseudomonas aeruginosa described in FEMS Microbiology Letters, 2001, Vol. 202, pp. 139 to 143. In the mexB (PA) strain, an expression level of MexB as a drug efflux pump is accelerated.
TC is a tetracycline-based antibacterial agent and is a drug that is discharged outside the bacteria by MexB. AZT is a monobactam-based antibacterial agent and is a drug that is discharged outside the bacteria by MexB.
as §2, §3, §4, §5, §6

| SMILES | EC99, S-3769 strain, AMK [1] | EC99, S-3769 strain, GM [1] | EC99, mexB (PA), AZT [2] | EC99, mexB (PA), LVFX [2] | EC99, mexB (PA), TC [2] |
| --- | --- | --- | --- | --- | --- |
| CCOc1cccc(F)c1CN1CCN(C(=O)[C@H](N)C2CCN(CCc3c(F)cccc3-c3ccccc3)CC2)CC1 [Example 52, Hydrobromide of (R)-2-amino-1-(4-(2-ethoxy-6-fluorobenzyl)piperazin-1-yl)-2-(1-(2-(3-fluoro-[1,l′-biphenyl]-2-yl)ethyl)piperidin-4-yl)ethan-1-one] | A (12.5 μM<EC99≤25 μM) | S (EC99≤12.5 μM) | B (25 μM<EC99≤100 μM) | B (25 μM<EC99≤100 μM) | B (25 μM<EC99≤100 μM) |
| CCOc1cccc(F)c1CN1CCN(C(=O)[C@H](N)C2CCN(CCc3c(Cl)cccc3-c3ccccc3)CC2)CC1 [Example 53, Hydrobromide of (R)-2-amino-2-(1-(2-(3-chloro-[1,1′-biphenyl]-2-yl)ethyl)piperidin-4-yl)-1-(4-(2-ethoxy-6-fluorobenzyl)piperazin-1-yl)ethan-1-one] | S (EC99≤12.5 μM) | S (EC99≤12.5 μM) | B (25 μM<EC99≤100 μM) | B (25 μM<EC99≤100 μM) | B (25 μM<EC99≤100 μM) |
| CCOc1cccc(F)c1CN1CCN(C(=O)[C@H](N)C2CCN(CCc3cc(Cl)ccc3C3=CCCCC3)CC2)CC1 [Example 56, Hydrobromide of (R)-2-amino-2-(1-(2-(4-chloro-2′,3′,4′,5′-tetrahydro-[1,1′-biphenyl]-2-yl)ethyl)piperidin-4-yl)-1-(4-(2-ethoxy-6-fluorobenzyl)piperazin-1-yl)ethan-1-one] | A (12.5 μM<EC99≤25 μM) | A (12.5 μM<EC99≤25 μM) | B (25 μM<EC99≤100 μM) | C (100 μM<EC99) | B (25 μM<EC99≤100 μM) |
| CCOc1cccc(F)c1CN1CCN(C(=O)[C@H](N)C2CCN(CCc3cc(Cl)ccc3-c3cccc(S(F)(F)(F)(F)F)c3)CC2)CC1 [Example 57, Hydrobromide of (R)-2-amino-2-(1-(2-(4-chloro-3′-(pentafluoro-λ6-sulfanyl)-[1,1′-biphenyl]-2-yl)ethyl)piperidin-4-yl)-1-(4-(2-ethoxy-6-fluorobenzyl)piperazin-1-yl) ethan-1-one] | B (25 μM<EC99≤100 μM) | B (25 μM<EC99≤100 μM) | C (100 μM<EC99) | C (100 μM<EC99) | B (25 μM<EC99≤100 μM) |
| CCOc1cccc(F)c1CN1CCN(C(=O)[C@H](N)C2CCN(CCc3cc(Cl)ccc3-c3cccc(P(C)(C)=O)c3)CC2)CC1 [Example 58, Hydrobromide of (R)-2-amino-2-(1-(2-(4-chloro-3′-(dimethylphosphoryl)-[1,1′-biphenyl]-2-yl)ethyl)piperidin-4-yl)-1-(4-(2-ethoxy-6-fluorobenzyl)piperazin-1-yl) ethan-1-one] | A (12.5 μM<EC99≤25 μM) | B (25 μM<EC99≤100 μM) | C (100 μM<EC99) | C (100 μM<EC99) | C (100 μM<EC99) |
| CCOc1cccc(F)c1CN1CCN(C(=O)[C@H](N)C2CCN(CCc3cc(Cl)ccc3-c3cccc(C#N)c3)CC2)CC1 [Example 65, Hydrobromide of (R)-2′-(2-(4-(1-amino-2-(4-(2-ethoxy-6-fluorobenzyl)piperazin-1-yl)-2-oxoethyl)piperidin-1-yl)ethyl)-4′-chloro-[1,1′-biphenyl]-3-carbonitrile] | A (12.5 μM<EC99≤25 μM) | A (12.5 μM<EC99≤25 μM) | B (25 μM<EC99≤100 μM) | C (100 μM<EC99) | B (25 μM<EC99≤100 μM) |
| CCOc1cccc(F)c1CN1CCN(C(=O)[C@H](N)C2CCN(CCc3cc(Cl)ccc3-c3cccc(C)c3)CC2)CC1 [Example 68, Hydrobromide of (R)-2-amino-2-(1-(2-(4-chloro-3′-methyl-[1,1′-biphenyl]-2-yl)ethyl)piperidin-4-yl)-1-(4-(2-ethoxy-6-fluorobenzyl)piperazin-1-yl)ethan-1-one] | A (12.5 μM<EC99≤25 μM) | A (12.5 μM<EC99≤25 μM) | B (25 μM<EC99≤100 μM) | B (25 μM<EC99≤100 μM) | B (25 μM<EC99≤100 μM) |
| CCOc1cccc(F)c1CN1CCN(C(=O)[C@H](N)C2CCN(CCc3cc(Cl)ccc3-c3ccc(C)cc3)CC2)CC1 [Example 69, Hydrobromide of (R)-2-amino-2-(1-(2-(4-chloro-4′-methyl-[1,1′-biphenyl]-2-yl)ethyl)piperidin-4-yl)-1-(4-(2-ethoxy-6-fluorobenzyl)piperazin-1-yl)ethan-1-one] | S (EC99≤12.5 μM) | S (EC99≤12.5 μM) | C (100 μM<EC99) | C (100 μM<EC99) | B (25 μM<EC99≤100 μM) |
| CCOc1cccc(F)c1CN1CCN(C(=O)[C@H](N)C2CCN(CCc3cc(Cl)ccc3C3=CCNCC3)CC2)CC1 [Example 71, (R)-2-amino-2-(1-(5-chloro-2-(1,2,3,6-tetrahydropyridin-4-yl)phenethyl)piperidin-4-yl)-1-(4-(2-ethoxy-6-fluorobenzyl)piperazin-1-yl)ethan-1-one] | S (EC99≤12.5 μM) | S (EC99≤12.5 μM) | C (100 μM<EC99) | B (25 μM<EC99≤100 μM) | S (EC99≤12.5 μM) |
| CCOc1cccc(F)c1CN1CCN(C(=O)[C@H](N)C2CCN(CCc3cc(Cl)ccc3-c3cccs3)CC2)CC1 [Example 72, Hydrobromide of (R)-2-amino-2-(1-(5-chloro-2-(thiophen-2-yl)phenethyl)piperidin-4-yl)-1-(4-(2-ethoxy-6-fluorobenzyl)piperazin-1-yl)ethan-1-one] | S (EC99≤12.5 μM) | S (EC99≤12.5 μM) | B (25 μM<EC99≤100 μM) | C (100 μM<EC99) | B (25 μM<EC99≤100 μM) |
| CCOc1cccc(F)c1CN1CCN(C(=O)[C@H](N)C2CCN(CCc3cc(Cl)ccc3-c3cccnc3)CC2)CC1 [Example 73, Hydrobromide of (R)-2-amino-2-(1-(5-chloro-2-(pyridin-3-yl)phenethyl)piperidin-4-yl)-1-(4-(2-ethoxy-6-fluorobenzyl)piperazin-1-yl)ethan-1-one] | S (EC99≤12.5 μM) | S (EC99≤12.5 μM) | A (12.5 μM<EC99≤25 μM) | C (100 μM<EC99) | B (25 μM<EC99≤100 μM) |
| CCOc1cccc(F)c1CN1CCN(C(=O)[C@H](N)C2CCN(CCc3cc(Cl)ccc3-c3ccncc3)CC2)CC1 [Example 74, Hydrobromide of (R)-2-amino-2-(1-(5-chloro-2-(pyridin-4-yl)phenethyl)piperidin-4-yl)-1-(4-(2-ethoxy-6-fluorobenzyl)piperazin-1-yl)ethan-1-one] | S (EC99≤12.5 μM) | A (12.5 μM<EC99≤25 μM) | C (100 μM<EC99) | C (100 μM<EC99) | C (100 μM<EC99) |
| CCOc1cccc(F)c1CN1CCN(C(=O)[C@H](N)C2CCN(CCc3cc(Cl)ccc3-c3ccccc3OC)CC2)CC1 [Example 76, Hydrobromide of (R.)-2-amino-2-(1-(2-(4-chloro-2′-methoxy-[1,1′-biphenyl]-2-yl)ethyl)piperidin-4-yl)-1-(4-(2-ethoxy-6-fluorobenzyl)piperazin-1-yl)ethan-1-one] | A (12.5 μM<EC99≤25 μM) | A (12.5 μM<EC99≤25 μM) | A (12.5 μM<EC99≤25 μM) | B (25 μM<EC99≤100 μM) | B (25 μM<EC99≤100 μM) |
